Results from ChEMBL document CHEMBL4680232, “Discovery of small molecules targeting GRP78 for antiangiogenic and anticancer therapy” (Eur J Med Chem, 2020).
Calls of active or inactive are those of the source. The calls are words filed in the database; no cut-off is given here.

Columns and labels:
[1] = biological target: Endoplasmic reticulum chaperone BiP (Homo sapiens) (UniProt P11021); assay: Binding affinity to human GRP78 at 1 uM measured after 30 mins by UF-ASMS analysis relative to control
Endoplasmic reticulum chaperone BiP (Homo sapiens), sequence (P11021 whole entry): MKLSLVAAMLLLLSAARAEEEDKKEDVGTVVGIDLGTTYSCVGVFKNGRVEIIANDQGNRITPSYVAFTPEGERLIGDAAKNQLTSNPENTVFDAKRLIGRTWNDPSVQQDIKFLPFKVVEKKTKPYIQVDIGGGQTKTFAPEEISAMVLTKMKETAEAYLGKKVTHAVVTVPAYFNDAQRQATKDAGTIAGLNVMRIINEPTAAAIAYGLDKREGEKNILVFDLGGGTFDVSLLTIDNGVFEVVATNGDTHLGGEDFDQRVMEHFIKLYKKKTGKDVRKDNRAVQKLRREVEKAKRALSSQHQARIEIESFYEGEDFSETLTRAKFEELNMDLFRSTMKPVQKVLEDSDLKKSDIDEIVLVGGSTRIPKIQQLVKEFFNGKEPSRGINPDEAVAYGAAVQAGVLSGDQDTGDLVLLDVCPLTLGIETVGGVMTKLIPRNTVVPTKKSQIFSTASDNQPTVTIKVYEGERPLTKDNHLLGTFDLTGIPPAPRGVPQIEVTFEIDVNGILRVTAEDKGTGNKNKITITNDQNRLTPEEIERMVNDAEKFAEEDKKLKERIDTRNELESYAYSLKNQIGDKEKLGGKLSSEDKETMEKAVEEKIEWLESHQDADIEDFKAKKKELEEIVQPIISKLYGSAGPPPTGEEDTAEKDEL

HUVEC [2] = assay: Antiangiogenic activity against VEGF-stimulated HUVEC assessed as reduction in cell viability at 100 uM measured after 48 hrs by MTT assay relative to control; assay type: functional
HUVEC [3] = assay: Antiangiogenic activity against VEGF-stimulated HUVEC assessed as reduction in cell viability measured after 48 hrs by MTT assay; assay type: functional, cell-based; conditions: Homo sapiens
786-0 [4] = assay: Cytotoxicity against human 786-0 cells assessed reduction in cell viability after 48 hrs by MTT assay; assay type: functional
[5] = biological target: Endoplasmic reticulum chaperone BiP (Homo sapiens) (UniProt P11021); conditions: dose 500.0 µM
Description: Binding affinity to N-terminal His-tagged GRP78 (unknown origin) assessed as change in melting temperature at 500 uM by differential scanning fluorimetry

786-0 [6] = assay: Cytotoxicity against human 786-0 cells assessed reduction in cell viability at 100 uM after 48 hrs by MTT assay; assay type: functional, cell-based
786-0 [7] = assay: Cytotoxicity against human 786-0 cells assessed reduction in cell viability at 10 uM after 48 hrs by MTT assay; assay type: functional, cell-based
HUVEC [8] = assay: Antiangiogenic activity against VEGF-stimulated HUVEC assessed as reduction in cell viability at 10 uM measured after 48 hrs by MTT assay relative to control; assay type: functional, Homo sapiens
HUVEC [9] = assay: Antiangiogenic activity against VEGF-stimulated HUVEC assessed as reduction in cell viability up to 100 uM measured after 48 hrs by MTT assay; assay type: functional, cell-based; conditions: Homo sapiens, dose microM <=100, time 48.0 hrs

Row | SMILES | RBA [1] [%] | Activity (HUVEC [2]; Homo sapiens) | CC50 (HUVEC [3]; time 48 hrs) [µM] | further results
1 | CCOS(=O)(=O)/C=C/c1ccc(OC)c(OCCc2nc(-c3ccccc3)sc2C)c1 | 129 | – | – | –
2 | CC(C)CNC(=O)c1c(-c2ccc(COC(=O)/C=C/c3ccc(O)cc3)cc2)oc2ccccc12 | – | Active | 100 | –
3 | CC(C)CNC(=O)c1c(-c2ccc(COc3ccc(CO)cc3)cc2)oc2ccccc12 | – | Active | 10 | CC50 (786-0 [4]): 10 µM
4 | COC(=O)c1c(-c2ccc(COC(=O)c3cc(O)cc(O)c3)cc2)oc2ccccc12 | – | Active | 10 | ΔTm [5]: -0.76 °C; Activity (786-0 [6]): Active; Activity (786-0 [7]): inactive
5 | Nc1ccc2[nH]c(=O)c(=O)[nH]c2c1 | 119 | – | – | –
6 | CC(C)CNC(=O)c1c(-c2ccc(COC(=O)c3ccccc3)cc2)oc2ccccc12 | – | Active | 100 | –
7 | O=c1[nH]c2nccc(OCCc3ccccc3)c2[nH]c1=O | 1000 | – | – | –
8 | CC(C)CNC(=O)c1c(-c2ccc(COC(=O)Cc3ccc(O)cc3)cc2)oc2ccccc12 | – | Active | 100 | –
9 | Cc1oc(-c2ccccc2)nc1CCOc1cccc2oc(CCC(=O)O)nc12 | 160 | – | – | –
10 | CC(=O)Nc1ccc(OCc2ccc(-c3oc4ccccc4c3C(=O)NCC(C)C)cc2)cc1 | 61 | – | 10 | Activity (HUVEC [8]): 50%
11 | COc1cc(OC)cc(C(=O)OCc2ccc(-c3oc4ccccc4c3C(=O)NCC(C)C)cc2)c1 | 143 | – | 10 | ΔTm [5]: 2.65 °C; CC50 (786-0 [4]): 10 µM; Activity (HUVEC [8]): 50%; EC50 (HUVEC [3]; 48 h): 1.51 µM
12 | COc1ccc(OC)c(/C=C(\C#N)c2ccc(-c3oc4ccccc4c3C(=O)NCC(C)C)cc2)c1 | – | – | 100 | –
13 | CC(C)CNC(=O)c1c(-c2ccc(COC(=O)c3ccc(O)cc3)cc2)oc2ccccc12 | – | Active | 100 | –
14 | O=C(O[C@@H]1Cc2c(O)cc(O)cc2O[C@@H]1c1cc(O)c(O)c(O)c1)c1cc(O)c(O)c(O)c1 | 271 | – | – | Activity (HUVEC [9]): inactive
15 | CC(C)CNC(=O)c1c(-c2ccc(COC(=O)c3ccc(N(C)C)cc3)cc2)oc2ccccc12 | 54 | – | 100 | Activity (HUVEC [2]): 50%; Activity (HUVEC [8]; Homo sapiens): inactive
16 | CC(C)CNC(=O)c1c(-c2ccc(CO)cc2)oc2ccccc12 | 180 | – | – | Activity (HUVEC [9]): inactive; CC50 (HUVEC [3]): inactive
17 | O=C(/C=C/c1ccc(O)c(O)c1)OCCc1ccccc1 | 98 | – | – | –
18 | O=c1[nH]c2ccc(OCCc3ccccc3)nc2[nH]c1=O | 536 | – | – | –
19 | CCCCNC(=O)c1c(-c2ccc(COC(=O)c3ccc(O)cc3)cc2)oc2ccccc12 | – | Active | 100 | –
20 | CC(C)CNC(=O)c1cccc2nc(-c3ccc(COC(=O)Cc4ccc(O)cc4)cc3)oc12 | – | Active | 10 | CC50 (786-0 [4]): 10 µM
21 | CC(C)CNC(=O)c1c(-c2ccc(COC(=O)c3cc(O)cc(O)c3)cc2)oc2ccccc12 | – | Active | 100 | –
22 | CC(C)CNC(=O)c1c(-c2ccc(COC(=O)c3ccccc3O)cc2)oc2ccccc12 | 501 | – | 10 | Activity (HUVEC [8]): 50%
23 | C=CCc1ccc(O)c(-c2ccc(O)c(CC=C)c2)c1 | – | Active | – | –
24 | Nc1ncnc2c1ncn2[C@@H]1O[C@H](COP(=O)(O)OP(=O)(O)OP(=O)(O)O)[C@@H](O)[C@H]1O | – | – | – | ΔTm [5]: 4.65 °C
25 | O=C(/C=C/c1ccc(O)c(O)c1)OCCc1ccc(Br)cc1 | 90 | – | – | Activity (HUVEC [2]): 50%; Activity (HUVEC [8]; Homo sapiens): inactive
26 | COc1ccc(/C=C/C(=O)OCCc2ccccc2)cc1 | 64 | – | – | –
27 | COc1cc(OC)cc(C(=O)OCc2ccc(-c3nc4cccc(C(=O)NCC(C)C)c4o3)cc2)c1 | – | – | – | CC50 (HUVEC [3]): inactive
